Laboratory results taken from patent US20110251379A1, “COMPOUNDS USEFUL FOR TREATING NEURODEGENERATIVE DISORDERS” (Satori Pharmaceuticals, Inc., priority 2010, published 2011).
Like-named read-outs stand apart in the source and are kept apart here.

Columns and labels:
Format in all cases: cell-based
[1] = test system: Aβ-38; assay: MSD Human (6E10) Ab 3-PLEX elisa, conditioned media of 2B7 cells: Aβ-38; settings: Homo sapiens; for IC50: Aβ-38 (superscript a)
Method: (§1) Assays were conducted to determine the ability of a Compound of Formula I to modulate […], and Aβ-38.
(§2) Plates with capture antibodies were blocked for 1-2 hours at room temperature with 150 μL of the manufactures blocking reagent.
(§3) Conditioned Media: • Cultured 2B7 cells in 96 well plate with 250 uL of media per well until confluent; • Prepared serial dilutions of compounds in DMSO at 100× the final desired concentration; • Washed wells with 2B7 cells 1× with 250 uL of media; • Diluted DMSO stocks 1:100 into media: • Added 250 μL of media containing compounds (1% DMSO) to wells with 2B7 cells for 5 hours at 37° C.
(§4) Elisa Sample Prep: • Diluted conditioned media: 1 part media with 1% DMSO and 1 part blocking buffer; • 150 μL of the 250 μL of conditioned media were used.
(§5) […] CURVE SAMPLE PREP: Prepared per manufacturer's protocol (see above) • Seven point standard curve samples were prepared that contained Aβ-42, Aβ-40, and Aβ-38. The highest concentration of Aβ-42 and Aβ-3-38 was 3,000 pg/mL and the highest concentration of Aβ-40 was 10,000 pg/mL. Subsequent serial dilutions were 1:3 and the final composition of each sample was 1 part blocking buffer and 1 part cell medium containing 1% DMSO.
(§6) Overnight Sample Incubation: • Blocked plates are washed 5× with MSD wash buffer with a plate washer • 25 uL of detection antibody and blocker G reagent in MSD blocking solution is added • 25 uL of samples (1 part conditioned media containing 1% DMSO and 1 part MSD blocking buffer) are then added. • plates are incubated overnight at 4 degrees C. or 2 hours at room temp
(§7) Final Wash and Readout: • Wash wells 5× with MSD wash buffer • Added 150 μL 2×MSD read buffer • Read with MSD imager.
(§8) A-Beta peptide levels for each peptide are calculated from the standard curve using the MSD software provided with the MSD 2400 Imager. Percent vehicle values for each compound dosage were then calculated and fit to a 4 parameter curve generating IC50 values.

[2] = test system: Aβ-42; assay: MSD Human (6E10) Ab 3-PLEX elisa, conditioned media of 2B7 cells: Aβ-42; settings: for IC50 / inhibition at 20 µM: Homo sapiens; for inhibition at 20 µM: Aβ-42, 20 μM
Method: as §1, §2, §3, §4, §5, §6, §7, §8

[3] = test system: Aβ-40; assay: MSD Human (6E10) Ab 3-PLEX elisa, conditioned media of 2B7 cells: Aβ-40; settings: for inhibition at 20 µM / IC50: Homo sapiens; for inhibition at 20 µM: Aβ-40, 20 μM
Method: as §1, §2, §3, §4, §5, §6, §7, §8

[4] = Aβ-42 (superscript c), read-out: 50% reduction value
[5] = Aβ-42 (superscript c), read-out: IC50 range
[6] = Aβ-40 (superscript b), read-out: 50% reduction value
[7] = Aβ-40 (superscript b), read-out: IC50 range

`CO[C@@H](C1C[C@@H](C)[C@H]2C(O1)[C@H](O)[C@@]1(C)C3CC[C@H]4C(C)(C)[C@@H](O)CC[C@@]45C[C@@]35CC[C@]21C)C(C)(C)O` (some centres unmarked) showed an IC50 ([1]; read-out: 50% reduction value) of under 1 µM, an IC50 [2, 4] of under 1 µM and an inhibition at 20 µM [3] of 25 to 75%.
In the case of `CNC(=O)O[C@H](C(C)C)C1C[C@@H](C)[C@H]2C(O1)[C@H](O)[C@@]1(C)C3CC[C@H]4C(C)(C)[C@@H](O)CC[C@@]45C[C@@]35CC[C@]21C` (some centres unmarked), the IC50 ([1]; read-out: 50% reduction value) is reported as 1 to 10 µM, the IC50 ([1]; read-out: IC50 range) is reported as under 1 µM and the 50% reduction value ([2]; Aβ-42 (superscript c)) is reported as “G/H”. The 50% reduction value ([3]; Aβ-40 (superscript b)) was “H/I”.
For `CC(C)[C@@H](OC(=O)N(C)C)C1C[C@@H](C)[C@H]2C(O1)[C@H](O)[C@@]1(C)C3CC[C@H]4C(C)(C)[C@@H](O)CC[C@@]45C[C@@]35CC[C@]21C` (some centres unmarked), the IC50 ([1]; read-out: 50% reduction value) was under 1 µM, the IC50 ([1]; read-out: IC50 range) was 1 to 10 µM and the IC50 [2, 4] was under 10 µM. The IC50 [2, 5] was 1 to 10 µM, the IC50 [3, 6] was 1 to 10 µM and the IC50 [3, 7] was over 10 µM.
`CC(C)C(=O)N1CCO[C@@H](O[C@H]2CC[C@]34C[C@]35CC[C@]3(C)[C@@H]6C(OC([C@H](O)C(C)C)C[C@H]6C)[C@H](O)[C@@]3(C)C5CC[C@H]4C2(C)C)C1` (some centres unmarked) was tested, and the IC50 ([1]; read-out: 50% reduction value) was 1 to 10 µM, the IC50 ([1]; read-out: IC50 range) was 1 to 10 µM and the IC50 [2, 4] was 1 to 10 µM. For the same compound, the IC50 [3, 6] was over 10 µM.
`CC(C)C(=O)N1CCO[C@@H](O[C@H]2CC[C@]34C[C@]35CC[C@]3(C)C6C(OC(CN(C)C(=O)N(C)C)C[C@H]6C)[C@H](O)[C@@]3(C)C5CC[C@H]4C2(C)C)C1` (some centres unmarked) showed an IC50 ([1]; read-out: 50% reduction value) of under 10 µM, an IC50 ([1]; read-out: IC50 range) of 1 to 10 µM and an IC50 [2, 4] of over 10 µM. The inhibition at 20 µM [2] was 25 to 75% and the inhibition at 20 µM [3] was 25 to 75%.
In the case of `CCO[C@@H](C1C[C@@H](C)[C@H]2C(O1)[C@H](O)[C@@]1(C)C3CC[C@H]4C(C)(C)[C@@H](O)CC[C@@]45C[C@@]35CC[C@]21C)C(C)(C)O` (some centres unmarked), the IC50 ([1]; read-out: 50% reduction value) is reported as under 1 µM, the inhibition at 20 µM ([1]; Aβ-38, 20 μM) is reported as 25 to 75% and the IC50 [2, 4] is reported as under 1 µM. For the same compound, the IC50 [2, 5] was under 1 µM, the IC50 [3, 7] was under 1 µM and the inhibition at 20 µM [3] was 25 to 75%.
`CC(C)C(=O)N1CCO[C@@H](O[C@H]2CC[C@]34C[C@]35CC[C@]3(C)C6C(OC(CN(C)C(N)=O)C[C@H]6C)[C@H](O)[C@@]3(C)C5CC[C@H]4C2(C)C)C1` (some centres unmarked) showed an IC50 ([1]; read-out: 50% reduction value) of 1 to 10 µM, an IC50 [2, 4] of 1 to 10 µM and an IC50 [3, 6] of over 10 µM.
For `CO[C@@H]([C@H]1C[C@@H](C)[C@H]2[C@H](O1)[C@H](O)[C@@]1(C)C3CC[C@H]4C(C)(C)[C@@H](O[C@H]5CN(C6COC6)CCO5)CC[C@@]45C[C@@]35CC[C@]21C)C(C)(C)O` (some centres unmarked), the IC50 ([1]; read-out: 50% reduction value) was under 1 µM, the IC50 [2, 4] was under 1 µM and the IC50 [3, 6] was 1 to 10 µM.
Work on `CO[C@@H]([C@H]1C[C@@H](C)[C@H]2[C@H](O1)[C@H](OC)[C@@]1(C)C3CC[C@H]4C(C)(C)[C@@H](O[C@H]5CN(C6COC6)CCO5)CC[C@@]45C[C@@]35CC[C@]21C)C(C)(C)O` (some centres unmarked) yielded an IC50 ([1]; read-out: 50% reduction value) of under 1 µM, an inhibition at 20 µM [2] of 25 to 75% and an inhibition at 20 µM [3] of 25 to 75%.
Work on `CCO[C@@H]([C@H]1C[C@@H](C)[C@H]2[C@H](O1)[C@H](O)[C@@]1(C)C3CC[C@H]4C(C)(C)[C@@H](O[C@H]5CN(C6COC6)CCO5)CC[C@@]45C[C@@]35CC[C@]21C)C(C)(C)O` (some centres unmarked) yielded an IC50 ([1]; read-out: 50% reduction value) of under 1 µM, an IC50 [2, 4] of under 1 µM and an IC50 [2, 5] of under 1 µM. For the same compound, the IC50 [3, 6] was 1 to 10 µM.
`CC(=O)OC(C)(C)C1C[C@@H](C)[C@H]2C(O1)[C@H](O)[C@@]1(C)C3CC[C@H]4C(C)(C)[C@@H](O)CC[C@@]45C[C@@]35CC[C@]21C` (some centres unmarked) gave an IC50 ([1]; read-out: 50% reduction value) of 1 to 10 µM, an IC50 [2, 4] of over 10 µM and an IC50 [3, 6] of over 10 µM.
Compound `C[C@@H]1CC(COc2ncccn2)OC2C1[C@@]1(C)CC[C@@]34C[C@@]35CC[C@H](O[C@H]3CN(C6COC6)CCO3)C(C)(C)[C@@H]5CCC4[C@]1(C)[C@H]2O` (some centres unmarked) has an IC50 ([1]; read-out: 50% reduction value) of 1 to 10 µM, an IC50 ([1]; read-out: IC50 range) of 1 to 10 µM and an IC50 [2, 4] of 1 to 10 µM. It also gave an IC50 [2, 5] of 1 to 10 µM, an IC50 [3, 6] of 1 to 10 µM and an IC50 [3, 7] of 1 to 10 µM.
`C[C@@H]1CC(C(O)C(C)(C)C)OC2[C@H]1[C@@]1(C)CC[C@@]34C[C@@]35CC[C@H](O[C@H]3CN(C6COC6)CCO3)C(C)(C)[C@@H]5CCC4[C@]1(C)[C@H]2O` (some centres unmarked) showed an IC50 ([1]; read-out: 50% reduction value) of under 1 µM, an IC50 ([1]; read-out: IC50 range) of under 1 µM and an IC50 [2, 4] of 1 to 10 µM. The IC50 [2, 5] was under 1 µM, the IC50 [3, 6] was under 1 µM and the IC50 [3, 7] was under 1 µM.
`C[C@@H]1CC(C(O)C(C)(C)C)OC2[C@H]1[C@@]1(C)CC[C@@]34C[C@@]35CC[C@H](O)C(C)(C)[C@@H]5CCC4[C@]1(C)[C@H]2O` (some centres unmarked) was tested, and the IC50 ([1]; read-out: 50% reduction value) was 1 to 10 µM, the inhibition at 20 µM [2] was 25 to 75% and the IC50 [3, 6] was over 10 µM.
For `CC(=O)OC(C(C)C)C1C[C@@H](C)[C@H]2C(O1)[C@H](O)[C@@]1(C)C3CC[C@H]4C(C)(C)[C@@H](O[C@H]5CNCCO5)CC[C@@]45C[C@@]35CC[C@]21C` (some centres unmarked), the IC50 ([1]; read-out: 50% reduction value) was under 1 µM, the IC50 ([1]; read-out: IC50 range) was under 1 µM and the IC50 [2, 4] was under 1 µM. For the same compound, the IC50 [2, 5] was under 1 µM, the IC50 [3, 6] was 1 to 10 µM and the IC50 [3, 7] was 1 to 10 µM.
